Experiments:
[1] = biological target: T1, human MCH receptor 1 (MCHR1) (Homo sapiens, UniProt Q99705); assay: human MCH receptor 1 (MCHR1) competitive binding assay with [125I]-MCH(4-19); details: test compound 0.1 μM, human MCHR1-expressing CHO cell membrane fraction, read-out: Binding inhibition rate % (0.1 μM)
T1 construct: expressed in transfected cells; host or cells: CHO cell clone 57 (membrane fraction)
Protocol: Determination of human MCH receptor 1 (MCHR1) competitive inhibitory activity of test compound using binding assay
1. Preparation of Membrane Fraction
Using human MCHR1 (=SLC-1 receptor)-expressing CHO cell clone 57 described in WO01/82925, MCHR1-expressing CHO cell membrane fractions were prepared by the following method.
In phosphate buffered saline (pH 7.4) supplemented with 5 mM EDTA (ethylenediaminetetraacetic acid) were respectively suspended human MCHR1-expressing CHO cells (1×10^8 cells) and centrifuged. Homogenate buffer (10 mL, 10 mM NaHCO3, 5 mM EDTA, pH 7.5, 0.5 mM PMSF (phenylmethylsulfonyl fluoride), 20 mg/L leupeptin, 4 mg/L E-64, 1 mg/L pepstatin A) was added to the pellets of the cells and, using Polytron Homogenizer, the mixture was homogenated. The supernatant obtained after centrifugation at 400×g for 10 min was further centrifuged at 100,000×g for 1 hr to give precipitate of the membrane fraction. The precipitate were suspended in 2 mL of assay buffer [20 mM Tris-HCl (pH 7.5), 5 mM EDTA, 0.5 mM PMSF, 20 mg/L leupeptin, 4 mg/L E-64, 1 mg/L pepstatin A]. The membrane fractions were suspended in assay buffer to a protein concentration of 2 mg/mL, and after dispensing, preserved at −80° C. and used upon thawing each time when in use.
The MCHR1 ligand binding inhibitory activity of the test compound was determined as follows.
An MCHR1-expressing CHO cell membrane fraction (173 μL) diluted with an assay buffer was dispensed to a 96 well polypropylene plate (3363, Corning). DMSO solution (2 μL), 33 μM cold MCH(1-19) diluted with DMSO solution (2 μL), or a test compound solution diluted with DMSO solution to various concentrations (2 μL) was added, and lastly, [^125I]-MCH (4-19) diluted with assay buffer (hereinafter, sometimes to be referred to as “hot MCH”, 25 μL) was added to each well. The mixture was reacted with stirring at room temperature for 1 hr, and the plate was set on FilterMate Harvester (PerkinElmer). Using a treating glass filter plate (GF/C, PerkinElmer) with polyethyleneimine, which had been previously set, the plate was suction-filtered and washed three times with washing buffer (50 mM Tris-HCl buffer pH 7.5). The glass filter plate was dried, MicroScinti0 (PerkinElmer) was added at 25 μL/well, and the resulting radioactivity was measured by TopCount liquid scintillation counter (PerkinElmer). The binding inhibition rate of the test compound was calculated by the following formula. Binding inhibition (%)=100−(radioactivity upon addition of test compound and hot MCH−radioactivity upon addition of cold MCH and hot MCH solution)/(radioactivity upon addition of DMSO solution and hot MCH−radioactivity upon addition of cold MCH and hot MCH solution)×100
The binding inhibition rates (%) of test compounds (0.1 μM) as measured using human MCHR1-expressing CHO cell are shown in Table 2.

[2] = biological target: T2, human MCHR1 (Homo sapiens, UniProt Q99705); assay: MCH receptor 1 antagonistic activity, Ca2+ mobilization assay; type: cell-based; details: CHO, test compound 0.1 μM; human MCHR1-expressing CHO cells (clone #4); ligand MCH(4-19) 2 nM; read-out: Inhibitory rate % (0.1 μM)
T2 construct: expressed in transfected cells; host or cells: CHO dhfr- cells, clone #4
Protocol: Measurement of MCH Receptor 1 Antagonistic Activity of Test Compound Using Ca^2+ Mobilization Assay Using an expression vector plasmid introduced with human MCHR1 gene for expression in animal cells, human MCHR1 gene was introduced into CHO cells (CHO dhfr^−) by Lipofectamine LTX (Invitrogen). The cells were cultured in selection MEMα medium [445 mL of MEMα medium without nucleic acid and added with 5 mL of Penicillin-Streptomycin (Invitrogen) and 50 mL of dialyzed fetal bovine serum]. Colony 24 clones grown in the selection medium, which were human MCHR1 gene-expressing CHO cell candidates, were selected. […] In the following test, this human MCHR1-expressing CHO cell (clone #4) was used. An integrated dispensing function fluorometer (CellLux, PerkinElmer) was used for Ca^2+ mobilization assay. […] The medium was removed, and the cells were washed with phosphate buffered saline (PBS). […] The plate was set on a plate reader. […] The inhibition rates (%) of test compounds (0.1 μM) as antagonist activity measured using human MCHR1-expressing CHO cells (clone #4) are shown in the following Table 3.

T2 sequence (Q99705 whole entry): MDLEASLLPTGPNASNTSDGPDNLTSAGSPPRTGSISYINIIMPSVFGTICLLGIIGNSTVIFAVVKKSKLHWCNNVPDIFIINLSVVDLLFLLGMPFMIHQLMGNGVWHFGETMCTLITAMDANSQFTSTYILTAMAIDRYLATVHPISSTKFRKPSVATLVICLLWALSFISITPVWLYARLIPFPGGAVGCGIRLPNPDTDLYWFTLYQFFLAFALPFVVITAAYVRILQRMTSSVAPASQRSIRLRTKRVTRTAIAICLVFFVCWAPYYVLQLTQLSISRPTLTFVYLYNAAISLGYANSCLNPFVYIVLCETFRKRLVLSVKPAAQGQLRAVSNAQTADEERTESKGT
T1 sequence (Q99705 whole entry): as above

inhibition at 0.1 µM [1] [%] | inhibition at 0.1 µM [2] [%] | SMILES
91 | 99 | Cn1c([C@@H]2C[C@@H]2C(C)(C)O)nc2ccc(-n3ccc(OCc4ccc(Cl)cc4)cc3=O)cc21 (racemic) [Example 80, 4-((4-Chlorobenzyl)oxy)-1-(2-((1RS,2SR)-2-(2-hydroxypropan-2-yl)cyclopropyl)-1-methyl-1H-benzimidazol-6-yl)pyridin-2(1H)-one]
69 | 94 | Cn1c([C@H]2C[C@H]2C#N)nc2ccc(-n3ccc(OCc4ccc(Cl)cc4)cc3=O)cc21 (racemic) [Example 148, (1RS,2SR)-2-(6-(4-((4-Chlorobenzyl)oxy)-2-oxopyridin-1(2H)-yl)-1-methyl-1H-benzimidazol-2-yl)cyclopropanecarbonitrile]
64 | 69 | Cn1c(C2CC2)nc2ccc(-n3ccc([C@@H]4C[C@H]4c4ccc(Cl)cc4)cc3=O)cc21 (racemic) [Example 253, 4-((1RS,2RS)-2-(4-chlorophenyl)cyclopropyl)-1-(2-cyclopropyl-1-methyl-1H-benzimidazol-6-yl)pyridin-2(1H)-one]
52 | 61 | Cn1c(C(=O)C2CC2)nc2ccc(-n3ccc(OCc4ccc(F)cc4)cc3=O)cc21 [Example 31, 1-(2-(Cyclopropylcarbonyl)-1-methyl-1H-benzimidazol-6-yl)-4-((4-fluorobenzyl)oxy)pyridin-2(1H)-one]
59 | 51 | CC(C)Cc1nc2ccc(-n3ccc(OCc4ccc(Cl)cc4)cc3=O)cc2n1C [Example 37, 4-((4-Chlorobenzyl)oxy)-1-(2-isobutyl-1-methyl-1H-benzimidazol-6-yl)pyridin-2(1H)-one]
69 | 100 | CC1CC1c1nc2ccc(-n3ccc(OCc4ccc(F)cc4)cc3=O)cc2n1C (stereo not drawn) [Example 43, 4-((4-Fluorobenzyl)oxy)-1-(1-methyl-2-(2-methylcyclopropyl)-1H-benzimidazol-6-yl)pyridin-2(1H)-one]
53 | 78 | Cc1c(C2CC2)nc2ccc(-n3ncc(OCc4ccc(Cl)cc4)cc3=O)cn12 [Example 55, 5-((4-Chlorobenzyl)oxy)-2-(2-cyclopropyl-3-methylimidazo[1,2-a]pyridin-6-yl)pyridazin-3(2H)-one]
63 | 57 | Cn1c(C2CC2(F)F)nc2ccc(-n3ccc(OCc4ccc(Cl)cc4)cc3=O)cc21 (stereo not drawn) [Example 62, 4-((4-Chlorobenzyl)oxy)-1-(2-(2,2-difluorocyclopropyl)-1-methyl-1H-benzimidazol-6-yl)pyridin-2(1H)-one]
76 | 99 | CCCc1nc2ccc(-n3ccc(OCc4ccc(F)cc4)cc3=O)cc2n1C [Example 64, 4-((4-Fluorobenzyl)oxy)-1-(1-methyl-2-propyl-1H-benzimidazol-6-yl)pyridin-2(1H)-one]
57 | 84 | CC(=O)c1nc2ccc(-n3ccc(OCc4ccc(F)cc4)cc3=O)cc2n1C [Example 66, 1-(2-Acetyl-1-methyl-1H-benzimidazol-6-yl)-4-((4-fluorobenzyl)oxy)pyridin-2(1H)-one]
65 | 58 | Cn1c(-c2cnco2)nc2ccc(-n3ccc(OCc4ccc(F)cc4)cc3=O)cc21 [Example 69, 4-((4-Fluorobenzyl)oxy)-1-(1-methyl-2-(1,3-oxazol-5-yl)-1H-benzimidazol-6-yl)pyridin-2(1H)-one]
79 | 35 | Cc1c(C2CC2)nc2ccc(-n3ccc(OCc4ccc(Cl)cc4)nc3=O)cn12 [Example 70, 4-((4-Chlorobenzyl)oxy)-1-(2-cyclopropyl-3-methylimidazo[1,2-a]pyridin-6-yl)pyrimidin-2(1H)-one]
72 | 43 | Cn1c(C2CC2)nc2ccc(-n3ccc(OCc4ccccc4F)cc3=O)cc21 [Example 71, 1-(2-Cyclopropyl-1-methyl-1H-benzimidazol-6-yl)-4-((2-fluorobenzyl)oxy)pyridin-2(1H)-one]
80 | 58 | Cn1c(C2CC2)nc2ccc(-n3ccc(OCc4cccc(F)c4)cc3=O)cc21 [Example 72, 1-(2-Cyclopropyl-1-methyl-1H-benzimidazol-6-yl)-4-((3-fluorobenzyl)oxy)pyridin-2(1H)-one]
84 | 80 | Cn1c(C2CC2)nc2ccc(-n3ccc(OCc4ccsc4)cc3=O)cc21 [Example 75, 1-(2-Cyclopropyl-1-methyl-1H-benzimidazol-6-yl)-4-(3-thienylmethoxy)pyridin-2(1H)-one]
73 | 46 | Cc1ncoc1-c1nc2ccc(-n3ccc(OCc4ccc(F)cc4)cc3=O)cc2n1C [Example 89, 4-((4-Fluorobenzyl)oxy)-1-(1-methyl-2-(4-methyl-1,3-oxazol-5-yl)-1H-benzimidazol-6-yl)pyridin-2(1H)-one]
67 | 70 | Cn1c(CC2CC2)nc2ccc(-n3ccc(OCc4ccc(Cl)cc4)cc3=O)cc21 [Example 91, 4-((4-Chlorobenzyl)oxy)-1-(2-(cyclopropylmethyl)-1-methyl-1H-benzimidazol-6-yl)pyridin-2(1H)-one]
75 | 97 | CCc1nc2ccc(-n3ccc(OCc4ccc(Cl)cc4)cc3=O)cc2n1C [Example 102, 4-((4-Chlorobenzyl)oxy)-1-(2-ethyl-1-methyl-1H-benzimidazol-6-yl)pyridin-2(1H)-one]
78 | 63 | CCCc1nc2ccc(-n3ccc(OCc4ccc(Cl)cc4)cc3=O)cc2n1C [Example 103, 4-((4-Chlorobenzyl)oxy)-1-(1-methyl-2-propyl-1H-benzimidazol-6-yl)pyridin-2(1H)-one]
60 | 61 | CC(=O)c1nc2ccc(-n3ccc(OCc4ccc(Cl)cc4)cc3=O)cc2n1C [Example 104, 1-(2-Acetyl-1-methyl-1H-benzimidazol-6-yl)-4-((4-chlorobenzyl)oxy)pyridin-2(1H)-one]
60 | 101 | Cc1nc2ccc(-n3ccc(OCc4ccc(Cl)cc4)cc3=O)cc2n1C [Example 107, 4-((4-Chlorobenzyl)oxy)-1-(1,2-dimethyl-1H-benzimidazol-6-yl)pyridin-2(1H)-one]
50 |  | CCc1nc2ccc(-n3ccc(OCc4ccsc4F)cc3=O)cc2n1C [Example 234, 1-(2-Ethyl-1-methyl-1H-benzimidazol-6-yl)-4-((2-fluoro-3-thienyl)methoxy)pyridin-2(1H)-one]
52 |  | CCc1nc2ccc(-n3ccc(OCc4ccc(F)s4)cc3=O)cc2n1C [Example 246, 1-(2-Ethyl-1-methyl-1H-benzimidazol-6-yl)-4-((5-fluorothiophen-2-yl)methoxy)pyridin-2(1H)-one]
85 |  | Cn1c(C2CC2)nc2ccc(-n3ccc(OCc4ccc5sccc5c4)cc3=O)cc21 [Example 255, 4-(1-Benzothiophen-5-ylmethoxy)-1-(2-cyclopropyl-1-methyl-1H-benzimidazol-6-yl)pyridin-2(1H)-one]

From patent publication US9365540B2, “Benzimidazole derivatives as MCH receptor antagonists” (Takeda Pharmaceutical Company Limited, priority 2012, dated 2016)
